Source: patent publication US11925632B2, “Isoquinoline derivatives for use in treating GLUT1 deficiency syndrome” (GLIAPHARM SA, priority 2019, dated 2024)

Experiments:
astrocytes = assay: Extracellular medium acidification (SNARF5) assay in astrocytes; type: cell-based; details: Mus musculus, Astrocyte, 1.5 h; astrocytes in vitro, 90 min stimulation, 10 nM to 30 μM
Description: Secretion of lactate was measured indirectly through the acidification of extracellular medium using extracellular pH sensor SNARE-5F-(AND-6)-CAR (SNARF5) as described below.
Secretion of lactate was measured indirectly through the acidification of extracellular medium using extracellular pH sensor […] (SNARF5). After washing cells twice with stimulation medium (DMEM (D5030, Sigma), 1 mM […], and 5 mM Glucose, pH 7.4) at 37° C., cells were stimulated with compounds at a final concentration ranging from 10 nM to 30 μM in 50 μl per well of stimulation medium supplemented with 10 μM of SNARF5 (Life Technologies Corporation). Each compound was tested in two different plates for duplicates. After 90 min stimulation, fluorescence was read at exc. (excitation) 480 nm/emm. (emission) 580 nm and at exc 480 nm/emm. 630 nm. The ratio of fluorescence between 630 nm and 580 emission values, which is proportional to extracellular pH, was calculated. In each plate, 8 wells were used for negative controls (DMSO 0.1%) and 8 wells were used for positive controls (CCCP 2 μM in DMSO).
Table 3 below lists compounds that are active on the extracellular medium acidification (SNARF5) assay in astrocytes in vitro, which indicates their ability to produce lactate. ‘+’ indicates activity of compounds with EC50>5 μM; ‘++’ indicates activity of compounds with EC50<5 μM.
Primary cultures of cerebrocortical astrocytes were obtained from 1 to 2-day-old OF1 mouse pups (Charles River). Briefly, cortices were isolated and minced in small pieces under a dissecting microscope. The cells were incubated for 30 min at 37° C. in a solution containing 20 U/ml papain, 1 mM L-cysteine and 10 kU/ml DNase I. After dissociation, papain activity was stopped by the addition of fetal calf serum (FCS). Single-cell suspension was then obtained by mechanical dissociation, which consisted in cells trituration in a DMEM D7777 medium supplemented with 44 mm NaHCO3, 10 ml/L antibiotic/antimycotic solution and 10% FCS. The cells were seeded at an average density of ˜10′000 cells/cm^2 on poly-D-lysine coated 96- or 12-well culture plates, depending on their use, and grown in DMEM D7777 medium supplemented with 44 mm NaHCO3, 10 ml/L antibiotic/antimycotic solution and 10% FCS at 37° C. in a humidified atmosphere containing 5% CO2/95% air. Culture medium was renewed twice a week. Cells were stimulated and harvested between DIV14 and DIV17, when confluence and cell growth were optimal.

[1] = system: astrocytes transfected with scramble siRNA; assay: 2-deoxyglucose (2DG) uptake, scramble siRNA astrocytes; type: cell-based, mouse; details: 30 min treatment, 1 or 10 μM, vs vehicle
Description: Astrocytes grown on 12-well plates and transfected with either scramble siRNA or GLUT1 siRNA were used. 1 day after having replaced transfection medium (DIV13), 2DG uptake was measured after treatment for 30 min with Vehicle (0.1% DMSO) or with the compound of the invention (1) (concentrations of 1 or 10 μM). During treatment, 1 mM 2DG was added to the medium for assessment of 2DG uptake. At the end of the stimulation, medium was removed and replaced with 150 μl NaOH 0.1M, and stored at −20° C. After thawing, cells were collected using cell scraper and heated for 40 min at 85° C. Then, 150 ul HCl 0.1M and TAE buffer 200 mM was added to each condition. 20 μl were added to a transparent 96-well plate and 2DG was quantified by addition of a reaction solution containing 50 mM TAE, 50 mM KCl, 0.02% BSA, 0.1 mM NADP, 0.2 U/ml diaphorase, 2 mM resazurin and 20 U/ml glucose-6-phosphate dehydrogenase. Concentration of 2DG in samples were calculated by comparison with standard curve of deoxy-glucose-6-phosphate ranging from 0 to 1 nmoles.
Scramble and GLUT1 siRNA sequences were as following:
Cells were grown in transfection medium for 3 days at 37° C. in a humidified atmosphere containing 5% CO2/95% air. […]
2DG uptake after treatment with Veh or compound of the invention (1) was measured in astrocytes transfected with scramble siRNA or GLUT1 siRNA (FIG. 4A).

wild-type (WT) mice = assay: Cerebral extracellular lactate and glucose biosensors, wild-type littermates; type: in vivo, mouse; details: medial prefrontal cortex, 10 mg/kg and/or 100 mg/kg oral, AUC ratio vs vehicle
From the text: Transgenic mice on 129/SvJ genetic background in which GLUT1 has been knocked-down (GLUT1-DS mice) were used (Wang et al., […], Human Molecular Genetics, 15(7)). Mating colonies were composed of wild-type female mice and GLUT1-DS male mice, or GLUT1-DS female mice and wild-type male mice. F1 pups were genotyped after ear punching at weaning using PCR to determine genotype. Mice of 2 to 3 months of age were used.
Cerebral extracellular levels of lactate and glucose were monitored in vivo in GLUT1-DS transgenic male mice and wild-type (WT) male littermates using lactate and glucose biosensors (Pinnacle Technology), according to the manufacturer's instructions. […] After surgery, mice were monitored closely and received analgesic treatment for at least 4 days. After mice had fully recovered from surgery, compounds of the invention of vehicle were administered per os as previously described and cerebral levels of extracellular lactate or glucose were dynamically recorded for 6 hours using lactate or glucose biosensors, respectively. […] Concentration of cerebral extracellular lactate or glucose was calculated from lactate or glucose probe electric signals, respectively, using post-calibration values, as described by manufacturer. […]

`COc1cc2ccnc(Nc3ccc(OC(F)(F)F)cc3)c2cc1OC` [Example 1, 6,7-dimethoxy-N-(4-(trifluoromethoxy)phenyl)isoquinolin-1-amine] was tested, and the EC50 (astrocytes) was greater than 5 µM, the 2DG uptake [1] was “significantly enhances 2DG uptake” and the “Extracellular glucose levels in the brain” value (wild-type (WT) mice) was “significantly increases”. For the same compound, the “Extracellular lactate levels in the brain” value (wild-type (WT) mice) was “significantly increases”.
